Data from patent US9359367B2, “Tetrahydroquinazolinone derivatives as PARP inhibitors” (Lupin Limited, priority 2012, dated 2016).

These molecules were tested against T1, PARP1 (Homo sapiens, UniProt P09874) (assay: PARP1 Biochemical Assay (BPS Bioscience kit, chemiluminescence)). Conditions: histone-coated plate, biotinilated NAD+, 25° C. for 60 min, luminescence, read-out: PARP 1 inhibition IC50.
T1 construct: purchased BPS Bioscience
T1 sequence (P09874 whole entry): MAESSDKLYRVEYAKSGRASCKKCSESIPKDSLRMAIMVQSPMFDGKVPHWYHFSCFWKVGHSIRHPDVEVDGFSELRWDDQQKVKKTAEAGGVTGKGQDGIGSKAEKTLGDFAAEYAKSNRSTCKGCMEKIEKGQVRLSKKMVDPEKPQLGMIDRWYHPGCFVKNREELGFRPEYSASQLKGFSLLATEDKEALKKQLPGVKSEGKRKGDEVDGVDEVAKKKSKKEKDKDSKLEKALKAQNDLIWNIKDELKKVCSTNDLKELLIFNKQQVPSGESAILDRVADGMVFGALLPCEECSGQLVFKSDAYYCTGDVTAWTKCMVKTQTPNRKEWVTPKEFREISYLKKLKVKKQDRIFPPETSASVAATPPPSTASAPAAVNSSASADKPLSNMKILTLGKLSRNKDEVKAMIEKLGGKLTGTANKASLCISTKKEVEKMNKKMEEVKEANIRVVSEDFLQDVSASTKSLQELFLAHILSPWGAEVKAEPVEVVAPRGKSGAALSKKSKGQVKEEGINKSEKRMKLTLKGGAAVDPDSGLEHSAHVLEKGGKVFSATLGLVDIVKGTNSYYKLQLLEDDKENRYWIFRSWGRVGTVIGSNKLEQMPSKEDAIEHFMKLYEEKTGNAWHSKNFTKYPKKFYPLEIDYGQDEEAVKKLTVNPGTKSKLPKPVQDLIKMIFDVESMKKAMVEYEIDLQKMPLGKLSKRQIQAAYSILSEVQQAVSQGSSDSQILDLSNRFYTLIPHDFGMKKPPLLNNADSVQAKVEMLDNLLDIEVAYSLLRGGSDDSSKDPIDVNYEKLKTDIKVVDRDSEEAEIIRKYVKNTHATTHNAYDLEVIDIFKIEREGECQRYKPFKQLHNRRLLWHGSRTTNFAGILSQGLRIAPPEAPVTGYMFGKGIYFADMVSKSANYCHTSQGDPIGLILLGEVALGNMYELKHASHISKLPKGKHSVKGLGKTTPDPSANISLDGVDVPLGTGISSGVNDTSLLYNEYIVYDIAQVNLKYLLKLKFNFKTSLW
Outline: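 Human PARP1 (25–75 ng/well) with activated DNA was incubated with compound on histone-coated wells. Biotinylated NAD+ was added and the reaction ran 60 min at 25 °C. Ribosylation was detected by streptavidin-HRP chemiluminescence, % inhibition was normalised to enzyme-free and uninhibited controls, and IC50 was fitted from % inhibition versus concentration.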
`CC1CN(c2ccc(F)cc2)CCN1CCCc1nc2c(c(=O)[nH]1)CC1(CC2)CC1` (centres unmarked) [Compound 27, 2′-(3-(4-(4-fluorophenyl)-2-methylpiperazin-1-yl)propyl)-7′,8′-dihydro-3′H-spiro[cyclopropane-1,6′-quinazolin]-4′(5′H)-one] showed an IC50 of 1 to 500 nM. `O=c1[nH]c(C2=C[C@H](N3CCN(c4ccccc4Cl)CC3)CC2)nc2c1CC1(CC2)CC1` [Compound 122, (R)-2′-(3-(4-(2-chlorophenyl)piperazin-1-yl)cyclopent-1-en-1-yl)-7′,8′-dihydro-3′H-spiro[cyclopropane-1,6′-quinazolin]-4′(5′H)-one] was tested, and the IC50 was 1 to 500 nM. With `O=c1[nH]c(C2=C[C@H](N3CCN(c4cccc(F)c4)CC3)CC2)nc2c1CC1(CC2)CC1` [Compound 78, (R)-2′-(3-(4-(3-fluorophenyl)piperazin-1-yl)cyclopent-1-en-1-yl)-7′,8′-dihydro-3′H-spiro[cyclopropane-1,6′-quinazolin]-4′(5′H)-one] the IC50 was 1 to 500 nM. `O=c1[nH]c(C2=C[C@H](N3CCN(c4cc(F)ccc4F)CC3)CC2)nc2c1CC1(CC2)CC1` [Compound 106, (R)-2′-(3-(4-(2,5-difluorophenyl)piperazin-1-yl)cyclopent-1-en-1-yl)-7′,8′-dihydro-3′H-spiro[cyclopropane-1,6′-quinazolin]-4′(5′H)-one] was tested, and the IC50 was 1 to 500 nM. With `O=c1[nH]c(C2=C[C@@H](N3CCN(c4ccc(Cl)cc4)CC3)CC2)nc2c1CC1(CC2)CC1` [Compound 38, (S)-2′-(3-(4-(4-chlorophenyl)piperazin-1-yl)cyclopent-1-en-1-yl)-7′,8′-dihydro-3′H-spiro[cyclopropane-1,6′-quinazolin]-4′(5′H)-one] the IC50 was 1 to 500 nM. `CNC(=O)c1ccc(N2CCN([C@H]3C=C(c4nc5c(c(=O)[nH]4)CC4(CC5)CC4)CC3)CC2)c(C)c1` [Compound 97, (R)—N, 3-dimethyl-4-(4-(3-(4′-oxo-4′,5′,7′,8′-tetrahydro-3′H-spiro[cyclopropane-1,6′-quinazolin]-2′-yl)cyclopent-2-en-1-yl)piperazin-1-yl)benzamide] was tested, and the IC50 was 1 to 500 nM. `O=c1[nH]c([C@H]2CC[C@H](N3CCN(c4cccc(F)c4)CC3)C2)nc2c1CC1(CC2)CC1` [Compound 154, 2′-((1S,3S)-3-(4-(3-fluorophenyl)piperazin-1-yl)cyclopentyl)-7′,8′-dihydro-3′H-spiro[cyclopropane-1,6′-quinazolin]-4′(5′H)-one] gave an IC50 of 1 to 500 nM. Molecule `O=c1[nH]c(C2=C[C@H](N3CCN(c4cc(F)cc(F)c4)CC3)CC2)nc2c1CC1(CC2)CC1` [Compound 109, (R)-2′-(3-(4-(3,5-difluorophenyl)piperazin-1-yl)cyclopent-1-en-1-yl)-7′,8′-dihydro-3′H-spiro[cyclopropane-1,6′-quinazolin]-4′(5′H)-one] has an IC50 of 1 to 500 nM. `Cc1ccnc(N2CCN([C@H]3C=C(c4nc5c(c(=O)[nH]4)CC4(CC5)CC4)CC3)CC2)c1` [Compound 125, (R)-2′-(3-(4-(4-methylpyridin-2-yl)piperazin-1-yl)cyclopent-1-en-1-yl)-7′,8′-dihydro-3′H-spiro[cyclopropane-1,6′-quinazolin]-4′(5′H)-one] showed an IC50 of 1 to 500 nM. For `Cc1nc2ccc(N3CCN([C@H]4C=C(c5nc6c(c(=O)[nH]5)CC5(CC6)CC5)CC4)CC3)cc2s1` [Compound 81, (R)-2′-(3-(4-(2-methylbenzo[d]thiazol-6-yl)piperazin-1-yl)cyclopent-1-en-1-yl)-7′,8′-dihydro-3′H-spiro[cyclopropane-1,6′-quinazolin]-4′(5′H)-one], the IC50 was 501 to 5000 nM. With `O=c1[nH]c(CCCN2CC=C(c3ccc(F)cc3)CC2)nc2c1CCC1(CC1)C2` [Compound 16, 2′-(3-(4-(4-fluorophenyl)-5,6-dihydropyridin-1(2H)-yl)propyl)-5′,6′-dihydro-3′H-spiro[cyclopropane-1,7′-quinazolin]-4′(8′H)-one] the IC50 was 5000 to 500000 nM. Molecule `O=c1[nH]c([C@H]2CC[C@H](N3CCN(c4ccc(F)cc4)CC3)C2)nc2c1CC1(CC2)CC1` [Compound 149, 2′-((1S,3S)-3-(4-(4-fluorophenyl)piperazin-1-yl)cyclopentyl)-7′,8′-dihydro-3′H-spiro[cyclopropane-1,6′-quinazolin]-4′(5′H)-one] has an IC50 of 1 to 500 nM. `O=c1[nH]c(C2=C[C@H](N3CCN(c4ccc(-c5ccccc5)cc4)CC3)CC2)nc2c1CC1(CC2)CC1` [Compound 158, (R)-2′-(3-(4-([1,1′-biphenyl]-4-yl)piperazin-1-yl)cyclopent-1-en-1-yl)-7′,8′-dihydro-3′H-spiro[cyclopropane-1,6′-quinazolin]-4′(5′H)-one] was tested, and the IC50 was 501 to 5000 nM. For `O=c1[nH]c(C2=C[C@H](N3CCN(c4ccsc4)CC3)CC2)nc2c1CC1(CC2)CC1` [Compound 91, (R)-2′-(3-(4-(thiophen-3-yl)piperazin-1-yl)cyclopent-1-en-1-yl)-7′,8′-dihydro-3′H-spiro[cyclopropane-1,6′-quinazolin]-4′(5′H)-one], the IC50 was 1 to 500 nM. `Cc1cc(F)cc(N2CCN([C@H]3C=C(c4nc5c(c(=O)[nH]4)CC4(CC5)CC4)CC3)CC2)c1` [Compound 126, (R)-2′-(3-(4-(3-fluoro-5-methylphenyl)piperazin-1-yl)cyclopent-1-en-1-yl)-7′,8′-dihydro-3′H-spiro[cyclopropane-1,6′-quinazolin]-4′(5′H)-one] was tested, and the IC50 was 501 to 5000 nM. Molecule `COc1cc(F)ccc1N1CCN([C@H]2C=C(c3nc4c(c(=O)[nH]3)CC3(CC4)CC3)CC2)CC1` [Compound 133, (R)-2′-(3-(4-(4-fluoro-2-methoxyphenyl)piperazin-1-yl)cyclopent-1-en-1-yl)-7′,8′-dihydro-3′H-spiro[cyclopropane-1,6′-quinazolin]-4′(5′H)-one] has an IC50 of 1 to 500 nM. Work on `O=c1[nH]c(C2=C[C@H](N3CCN(c4ccccc4F)CC3)CC2)nc2c1CC1(CC2)CC1` [Compound 116, (R)-2′-(3-(4-(2-fluorophenyl)piperazin-1-yl)cyclopent-1-en-1-yl)-7′,8′-dihydro-3′H-spiro[cyclopropane-1,6′-quinazolin]-4′(5′H)-one] yielded an IC50 of 1 to 500 nM. For `Cc1cnc(N2CCN([C@H]3C=C(c4nc5c(c(=O)[nH]4)CC4(CC5)CC4)CC3)CC2)s1` [Compound 113, (R)-2′-(3-(4-(5-methylthiazol-2-yl)piperazin-1-yl)cyclopent-1-en-1-yl)-7′,8′-dihydro-3′H-spiro[cyclopropane-1,6′-quinazolin]-4′(5′H)-one], the IC50 was 1 to 500 nM. `O=c1[nH]c(C2=C[C@H](N3CCN(c4cc(Cl)ccc4F)CC3)CC2)nc2c1CC1(CC2)CC1` [Compound 138, (R)-2′-(3-(4-(5-chloro-2-fluorophenyl)piperazin-1-yl)cyclopent-1-en-1-yl)-7′,8′-dihydro-3′H-spiro[cyclopropane-1,6′-quinazolin]-4′(5′H)-one] showed an IC50 of 501 to 5000 nM. Molecule `Cc1cccc(N2CCN([C@H]3C=C(c4nc5c(c(=O)[nH]4)CC4(CC5)CC4)CC3)CC2)c1` [Compound 85, (R)-2′-(3-(4-(m-tolyl)piperazin-1-yl)cyclopent-1-en-1-yl)-7′,8′-dihydro-3′H-spiro[cyclopropane-1,6′-quinazolin]-4′(5′H)-one] has an IC50 of 1 to 500 nM. For `COc1cc(N2CCN([C@H]3C=C(c4nc5c(c(=O)[nH]4)CC4(CC5)CC4)CC3)CC2)ccc1F` [Compound 114, (R)-2′-(3-(4-(4-fluoro-3-methoxyphenyl)piperazin-1-yl)cyclopent-1-en-1-yl)-7′,8′-dihydro-3′H-spiro[cyclopropane-1,6′-quinazolin]-4′(5′H)-one], the IC50 was 1 to 500 nM. `O=c1[nH]c(CCCN2CCN(c3ccc(F)cc3)CC2)nc2c1CCC1(CC1)C2` [Compound 15, 2′-(3-(4-(4-fluorophenyl)piperazin-1-yl)propyl)-5′,6′-dihydro-3′H-spiro[cyclopropane-1,7′-quinazolin]-4′(8′H)-one] gave an IC50 of 5000 to 500000 nM. With `Cc1ccc(N2CCN([C@H]3C=C(c4nc5c(c(=O)[nH]4)CC4(CC5)CC4)CC3)CC2)cc1Cl` [Compound 82, (R)-2′-(3-(4-(3-chloro-4-methylphenyl)piperazin-1-yl)cyclopent-1-en-1-yl)-7′,8′-dihydro-3′H-spiro[cyclopropane-1,6′-quinazolin]-4′(5′H)-one] the IC50 was 1 to 500 nM. `O=c1[nH]c(CCCN2CCN(c3ccc(F)cc3)CC2)nc2c1C1CCC2C1` (centres unmarked) [Compound 35, 2-(3-(4-(4-fluorophenyl)piperazin-1-yl)propyl)-5,6,7,8-tetrahydro-5,8-methanoquinazolin-4(3H)-one] was tested, and the IC50 was 5000 to 500000 nM. Molecule `CC1(C)CC(c2nc3c(c(=O)[nH]2)CC2(CC3)CC2)=C[C@@H]1N1CCN(c2ccc(F)cc2)CC1` [Compound 71, (S)-2′-(3-(4-(4-fluorophenyl)piperazin-1-yl)-4,4-dimethylcyclopent-1-en-1-yl)-7′,8′-dihydro-3′H-spiro[cyclopropane-1,6′-quinazolin]-4′(5′H)-one] has an IC50 of 5000 to 500000 nM. `O=c1[nH]c(C2=C[C@H](N3CCN(c4ccc(Cl)cc4Cl)CC3)CC2)nc2c1CC1(CC2)CC1` [Compound 65, (R)-2′-(3-(4-(2,4-dichlorophenyl)piperazin-1-yl)cyclopent-1-en-1-yl)-7′,8′-dihydro-3′H-spiro[cyclopropane-1,6′-quinazolin]-4′(5′H)-one] gave an IC50 of 1 to 500 nM. Work on `O=c1[nH]c(CCCN2CCN(c3ccccc3)CC2)nc2c1CC1(CC2)CC1` [Compound 13, 2′-(3-(4-phenylpiperazin-1-yl)propyl)-7′,8′-dihydro-3′H-spiro[cyclopropane-1,6′-quinazolin]-4′(5′H)-one] yielded an IC50 of 501 to 5000 nM. Work on `O=C1CN([C@H]2C=C(c3nc4c(c(=O)[nH]3)CC3(CC4)CC3)CC2)CCN1c1ccc(F)cc1` [Compound 45, (R)2′-(3-(4-(4-fluorophenyl)-3-oxopiperazin-1-yl)cyclopent-1-en-1-yl)-7′,8′-dihydro-3′H-spiro[cyclopropane-1,6′-quinazolin]-4′(5′H)-one] yielded an IC50 of 5000 to 500000 nM. For `Cc1c(F)cccc1N1CCN([C@H]2C=C(c3nc4c(c(=O)[nH]3)CC3(CC4)CC3)CC2)CC1` [Compound 108, (R)-2′-(3-(4-(3-fluoro-2-methylphenyl)piperazin-1-yl)cyclopent-1-en-1-yl)-7′,8′-dihydro-3′H-spiro[cyclopropane-1,6′-quinazolin]-4′(5′H)-one], the IC50 was 1 to 500 nM.
